Results taken from US20240309014A1, “MACROCYCLIC COMPOUNDS AND USES THEREOF” (President and Fellows of Harvard College, priority 2017, published 2024).

Tests used:
[1] = tested on: COLO-704 subcutaneous xenograft; test: COLO-704 xenograft model as monotherapy (FIG. 12); format: in vivo, nude mice
Procedure: A human ovarian cancer cell line COLO-704, which had been cultured in a RPMI-1640 containing 10% FBS, and penicillin-streptomycin, was adjusted to a concentration of 1×10^8 cells/mL with Hanks' Balanced Salt Solution to prepare a cell suspension. The cell suspension was inoculated in a volume of 100 μL into a subcutaneous part of a right flank of nude mice, 5 weeks of ages (CAnN.Cg- Foxnlnu/CrlCrlj, female, Charles River Laboratories Japan Inc.). Nine days after cell inoculation (Day 1), the shortest diameter and the longest diameter of a tumor in each mouse were measured by using an electronic digital caliper (Digimatic™ caliper, Mitutoyo Corporation), so as to calculate the volume of the tumor in accordance with the following calculation formulae: […]
(§1) On the basis of the volumes of tumors obtained on Day 1, the mice were grouped such that averages of the tumor volumes were substantially equal among the groups. The experiment was conducted on groups each consisting of six mice. The test compound was dissolved in DMSO and a solution was stored in the freezer before use. Immediately before the administration, the stock solution was diluted with saline. The test compound in saline was intravenously once-weekly administered at 20 μg/kg, 60 μg/kg, or 180 μg/kg for 2 weeks (on Day 1 and Day 8).

[2] = tested on: human endometrial cancer cell line HEC-108 xenograft; test: HEC-108 endometrial cancer xenograft as monotherapy (FIG. 18); format: in vivo, athymic mice; conditions: 180 μg/kg i.v. Day 1 and Day 8
Procedure: A human endometrial cancer cell line HEC-108, which had been cultured in an E-MEM containing 15% FBS and antibiotics were adjusted to a concentration of 7.14×10^7 cells/mL with medium to prepare a cell suspension. The cell suspension was inoculated in a volume of 150 μL into a subcutaneous part of a right flank of athymic mice (CAnN.Cg-Foxnlnu/CrlCrlj, female, 6 weeks old, Charles River Japan Inc.). Thirteen days after cell inoculation (Day 1), the length and the width of a tumor in each mouse were measured by using an electronic digital caliper (Mitutoyo Corporation), so as to calculate the volume of the tumor in accordance with the following calculation formula: […]
On the basis of TV, the mice were randomly grouped (Day 1). Each group was consisted in six mice. Compound (1) was dissolved in DMSO and a solution was stored in the freezer before use. Compound (1) (180 μg/kg) was diluted in saline and intravenously injected on Day 1 and Day 8.

[3] = tested on: CD31-positive vessel in FaDu tumor; test: Effect on CD31-positive vessel in the FaDu subcutaneous model (FIG. 13); format: in vivo, nude mice; conditions: single i.v. administration at 20, 60, and 180 μg/kg, five days after
Procedure: A human squamous cell carcinoma of the head and neck (SCCHN) cell line FaDu, which had been cultured in an RPMI-1640 medium containing 10% FBS, and penicillin-streptomycin (culture medium), was adjusted to a concentration of 5×10^7 cells/mL with culture medium to prepare a cell suspension. The cell suspension was inoculated in a volume of 100 μL into a subcutaneous part of a right flank of nude mice, 6 weeks of ages (CAnN.Cg-Foxnlnu/CrlCrlj, female, Charles River Laboratories Japan, Inc.). Ten days after cell inoculation, the mice were grouped such that averages of the tumor volumes were substantially equal among the groups. The experiment was conducted on groups each consisting of 6 mice. Each test compound was dissolved in DMSO and a solution was stored in the freezer before use. Immediately before the administration, the stock solution was diluted with saline. […] The number of blood vessels in the whole tumor was quantified by counting the CD31-positive objects using inform 2 software (PerkinElmer Inc.) Area of the tumor region was measured by assessing the hematoxylin-staining area using inform 2 software (PerkinElmer Inc.) The number of blood vessels was normalized by the area of the tumor region. […] The ratios of blood vessel number in the test compound-dosing groups compared to non-treat group were calculated with the below formula: […]

[4] = tested on: human duodenal cell line HuTu 80 xenograft; test: HuTu 80 xenograft model as monotherapy (FIG. 23); format: in vivo, nude mice
Procedure: A human duodenal cell line HuTu 80, which had been cultured in a EMEM containing 10% FBS, and penicillin-streptomycin, was adjusted to a concentration of 3×10^7 cells/mL in PBS to prepare a cell suspension. The cell suspension was inoculated in a volume of 100 μL into a subcutaneous part of a right flank of nude mice, 7 weeks of ages (CAnN.Cg-Foxnlnu/CrlCrlj, female, Charles River Laboratories Japan Inc.). Seven days after cell inoculation (Day 1), the shortest diameter and the longest diameter of a tumor in each mouse were measured by using an electronic digital caliper (Digimatic™ caliper, Mitutoyo Corporation), so as to calculate the volume of the tumor in accordance with the following calculation formulae: […]
as §1, with “mice. Compound (1)” for “mice. The test compound”, “at 45, 90,” for “at 20 μg/kg, 60 μg/kg,”

In the case of `C=C1C[C@@H]2CC[C@@]34C[C@H]5O[C@H]6[C@@H](O3)[C@H]3O[C@H](CC[C@@H]3O[C@H]6C5O4)CC(=O)O[C@@H]3[C@@H](C)[C@@H]4O[C@@H]5C[C@]6(C[C@@H]7O[C@]8(C[C@H](C)[C@@H]9O[C@H](CN)[C@H](O)C[C@@H]9O8)C[C@H](C)[C@@H]7O6)O[C@@H]5C[C@@H]4O[C@H]3C[C@H]3O[C@@H](CC[C@@H]1O2)C[C@@H](C)C3=C` (stereo in doubt) [Compound (1)], the antitumor effect ([1]; 60 μg/kg i.v. Day 1 and Day 8) is reported as “tumor growth delay”, the antitumor effect ([1]; 180 μg/kg i.v. Day 1 and Day 8) is reported as “tumor regression” and the “xenograft tumors on Day 22” value ([1]; 180 μg/kg i.v. Day 1 and Day 8) is reported as “completely eradicated the xenograft tumors in all mice”. For the same compound, the antitumor activity [2] was “tumor growth delay”, the “tumor blood vessel number” value [3] was “increased the tumor blood vessel number” and the “Tumor Regression (%)” value ([4]; 0.18 mg/kg i.v. Day 1 and Day 8) was 99%. For the same compound, the antitumor effect ([4]; 180 μg/kg i.v. Day 1 and Day 8) was “tumor regression” and the antitumor effect ([4]; 45 and 90 μg/kg i.v. Day 1 and Day 8) was “tumor growth delay”.
